{"source": "patent US11806386B2", "about": "“Type I diabetes therapy” (St. Vincent's Institute of Medical Research, priority 2017, dated 2023)", "key": {"[1]": {"system": "IGRP-specific CD8+ T cells", "protocol": "IGRP was expressed in TII mice at 10-weeks of age. NOD mice were used as controls without antigen expression. At 13-weeks of age, mice were treated for 2 weeks with vehicle (Veh) or JAK inhibitor (JAKi). Mice were harvested for analysis immediately after treatment (2 week), or after a further 2 or 4 weeks with antigen alone (4 week and 6 week). The number of IGRP-specific CD8+ T cells in the peripheral lymphoid organs (PLO, top panel) or islets (bottom panel) is shown for each time point.\nTII mice received doxycycline until 10-weeks of age. After doxycycline was removed, IGRP was expressed in antigen presenting cells of mice carrying both tetO-IGRP and IEα-tTA transgenes. Mice were treated with 10 mg/kg JAK inhibitor or vehicle between 13-15 w of age for 2 weeks. Mice were analysed at 2 weeks (harvest immediately after stopping JAK inhibitor), 4 weeks (harvest two weeks after stopping JAK inhibitor), and 6 weeks (harvest four weeks after stopping JAK inhibitor). Data is from 1-3 experiments per time point with 3-4 mice per group/experiment.\nCells were washed then stained with anti-PE MicroBeads (Miltenyi Biotec) and magnetically separated using an AutoMACSpro (Miltenyi Biotec).\nFluorescent-labelled monoclonal antibodies specific for CD4 (GK1.5) bound to APC-Cy7, CD8 (53-6.7) bound to FITC, CD3 (500A2) bound to AmCyan, CD44 (IM7) bound to Alexa Fluor 700, and CD11 b (M1/70), CD11c (N418) and Ly6G (RB6-8C5) bound to Pacific Blue were used to stain magnetically sorted cells. Analysis was performed using FACSFortessa (BD Bioscience) and FlowJo software (TreeStar). Single cells were gated on forward and side scatter, and dead cells excluded using propidium iodide. CD11 b^− CD11c^− Ly6G^− CD3^+ CD8^+ cells were gated as the target population for analysis of IGRP tetramer-positive T cells."}, "[2]": {"system": "diabetes in TIP2 mice", "details": "combination therapy: TIP2 mice expressing proinsulin plus 10 mg/kg twice daily oral from 12 to 14 weeks of age (cohort 3); p<0.005", "protocol": "Mice were monitored for 30 weeks (210 days). […] Diabetes incidence curves compared using Log-Rank (Mantel-Cox) test.\nRemoval of doxycycline allowed the maximal recovery of proinsulin expression by 12 weeks (84 days) of age.\nMice receiving JAK inhibitor were treated with 10 mg/kg dose twice daily by oral gavage from 12 to 14 weeks (day 84-98) of age. Control mice received the same volume of vehicle by oral gavage.\nFemale mice were monitored for diabetes weekly by measurement of urinary glucose levels using Diastix (Bayer). Those suspected of hyperglycaemia had further blood glucose level testing on two consecutive days using ACCU-CHEK Advantage II strips (Roche). Mice with two consecutive blood glucose measurements of greater than or equal to 15 mM were considered diabetic.\nTIP2 mice were administered doxycycline until 8 weeks of age to suppress proinsulin expression. At 12 weeks of age TIP2 mice received JAK inhibitor (combination therapy; cohort 3; FIG. 4A) or vehicle (proinsulin monotherapy; cohort 2)."}, "[3]": {"system": "other JAK-family kinases", "details": "cited from earlier work"}, "[4]": {"target": "JAK2 (Homo sapiens, UniProt O60674)", "sequence (O60674 whole entry, species assumed)": "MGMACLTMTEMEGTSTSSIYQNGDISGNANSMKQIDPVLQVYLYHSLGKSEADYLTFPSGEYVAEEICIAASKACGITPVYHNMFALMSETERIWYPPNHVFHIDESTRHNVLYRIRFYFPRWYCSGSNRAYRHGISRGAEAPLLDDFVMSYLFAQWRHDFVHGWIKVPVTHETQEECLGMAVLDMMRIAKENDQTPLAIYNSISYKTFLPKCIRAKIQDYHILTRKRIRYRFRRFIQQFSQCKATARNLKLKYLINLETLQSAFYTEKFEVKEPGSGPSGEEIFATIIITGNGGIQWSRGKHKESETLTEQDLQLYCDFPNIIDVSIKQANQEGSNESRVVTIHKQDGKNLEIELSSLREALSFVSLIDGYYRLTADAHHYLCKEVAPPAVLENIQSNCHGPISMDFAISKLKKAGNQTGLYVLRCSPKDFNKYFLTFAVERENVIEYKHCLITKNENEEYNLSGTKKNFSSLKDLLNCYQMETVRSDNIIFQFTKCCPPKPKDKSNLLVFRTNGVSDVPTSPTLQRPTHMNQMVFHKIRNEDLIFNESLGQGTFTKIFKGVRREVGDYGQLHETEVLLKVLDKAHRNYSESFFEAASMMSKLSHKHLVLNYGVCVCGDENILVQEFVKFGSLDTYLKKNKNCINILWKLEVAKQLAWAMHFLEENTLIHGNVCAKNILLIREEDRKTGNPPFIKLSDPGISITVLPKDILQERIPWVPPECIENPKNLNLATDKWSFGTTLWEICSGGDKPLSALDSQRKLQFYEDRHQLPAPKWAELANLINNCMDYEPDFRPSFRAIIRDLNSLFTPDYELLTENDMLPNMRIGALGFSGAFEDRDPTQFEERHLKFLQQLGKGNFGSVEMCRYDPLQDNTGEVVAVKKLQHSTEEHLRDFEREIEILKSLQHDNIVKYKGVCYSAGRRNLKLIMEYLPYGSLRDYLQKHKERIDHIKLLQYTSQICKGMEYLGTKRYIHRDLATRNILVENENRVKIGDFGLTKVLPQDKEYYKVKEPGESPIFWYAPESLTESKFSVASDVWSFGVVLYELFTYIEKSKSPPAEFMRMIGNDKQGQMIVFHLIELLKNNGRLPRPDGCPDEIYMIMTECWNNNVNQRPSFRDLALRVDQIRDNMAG", "details": "cited from earlier work"}, "[5]": {"system": "JAK/STAT signalling (p-STAT1)", "assay": "IFNγ-mediated STAT1 phosphorylation in peripheral blood stimulated ex vivo after oral dosing (Western blot)", "parameters": "species or system NOD mice", "details": "80 mg/kg daily oral gavage from 2 to 4 weeks of age; blood taken 2 h after last dose, 100 U/mL IFNγ ex vivo; p=0.01", "protocol": "(A) NOD mice received 80 mg/kg ruxolitinib (n=5) or vehicle (n=5) daily by oral gavage from 2 to 4 weeks of age. Two hours after last dose of ruxolitinib or vehicle, peripheral blood was stimulated with 100 U/mL IFNγ ex vivo and analysed by Western blot for IFNγ-mediated phosphorylation of STAT1 and housekeeping protein β-actin. The intensity of p-STAT1 as a ratio of β-actin in arbitrary units (mean±SEM) was used to measure p-STAT1. p=0.01 using two-tailed unpaired t test.\nThe JAK1/JAK2 inhibitor ruxolitinib was purchased from Chemietek (USA). […] Mice receiving JAK inhibitor were treated with 80 mg/kg ruxolitinib daily by oral gavage from 2 to 4 weeks of age. Control mice received the same volume of vehicle by oral gavage.\nPeripheral whole blood was stimulated with 100 U/mL IFN-γ (Biolegend) for 30 min at 37° C. […] Samples were further treated with radioimmunoprecipitation assay buffer (R0278, Sigma), sample buffer (10% SDS, 30% glycerol, 0.02% bromophenol blue in 250 mM Tris-HCl, pH 6.8) and β-mercaptoethanol. Near-infrared fluorescent western blotting was performed using anti-p-STAT1 antibody (BD Biosciences), normalized to β-actin (Santa Cruz Biotechnology) and scanned on an Odyssey CLx imager.\nAt 4 weeks of age, two hours after the last oral gavage of 80 mg/kg ruxolitinib or vehicle, peripheral blood and islets were harvested from NOD mice."}}}
{"compound": "CC(C)(C)c1nc2c3cc[nH]c(=O)c3c3cc(F)ccc3c2[nH]1", "note": "[JAK inhibitor]", "values": [{"measurement": "IGRP specific memory T cells 2 weeks after cessation of treatment", "setting": "[1]; NOD mice without antigen expression (NOD-JAKi)", "value": "returned"}, {"measurement": "IGRP specific memory T cells in PLO and in islets immediately after 2 weeks of treatment", "setting": "[1]; TII mice expressing IGRP from 10 weeks, 10 mg/kg for 2 weeks, TII-Veh vs TII-JAKi", "value": "decrease"}, {"measurement": "IGRP specific memory T cell numbers after cessation of treatment", "setting": "[1]; TII mice with antigen expression (TII-JAKi), islets at 6 weeks p=0.02, PLO p=0.054", "value": "remained low"}, {"measurement": "protection from diabetes at 30 weeks of age (210 days)", "setting": "[2]", "value": "significantly protected from diabetes"}]}
{"compound": "C[C@H](Nc1cc(-c2cnn(C)c2)cc(Nc2cnccn2)n1)c1ccc(F)cc1", "note": "[NS018]", "values": [{"measurement": "selectivity for JAK2 over other JAK-family kinases", "setting": "[3]", "value": "30-50 fold"}, {"measurement": "IC50", "setting": "[4]", "value": "< 1", "unit": "nM"}]}
{"compound": "N#CC[C@H](C1CCCC1)n1cc(-c2ncnc3[nH]ccc23)cn1", "note": "[ruxolitinib]", "values": [{"measurement": "reduction of STAT1 phosphorylation compared to vehicle-treated NOD mice", "setting": "[5]", "value": "greater than 50%"}]}
